Laboratory results reported in US10030027B2, “Soluble guanylate cyclase stimulators” (MERCK SHARP & DOHME CORP., priority 2015, dated 2018).

Experiments:
sGC α1/β1 heterodimer = sGC α1/β1 heterodimer (Homo sapiens (Human), UniProt Q02108+Q02153); assay: Cell-based sGC functional assay (cyclic GMP assay for sGC activator: CASA assay); parameters: % Activation: concentration or dose not given beside the values; conditions: CHO-K1/sGC cells; for EC50: inflection point, 4P fit, read-out: IP; for Emax: CHO-K1, activity expressed as percentage of compound A (standard), read-out: % Activation
Method in brief: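 CHO-K1 cells stably expressing human sGC α1/β1 were pre-incubated 30 min at 25° C with or without 1 μM DETA-NO, then exposed to compound for 1 hr at 37° C with 0.5 mM IBMX and 2.5% DMSO final. Intracellular cGMP was measured by HTRF, expressed as % of reference sGC-HDA maximum; inflection point and maximum fold induction came from 4-parameter fits.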

[1] = biological target: human recombinant sGC enzyme (Homo sapiens (Human), UniProt Q02108+Q02153); assay: Size Exclusion Chromatography (SEC) competition binding assay using [3H] Ex-77B as the radioligand; conditions: [3H] Ex-77B radioligand, 24 hours at 37° C.
Experimental: Binding Assay: The binding potencies of sGC compounds to the human recombinant sGC enzyme were determined in a Size Exclusion Chromatography (SEC) competition binding assay using [^3H] Ex-77B as the radioligand. [^3H] Ex-77B was prepared using a standardardized tritium exchange procedure. The parent (non-labeled) molecule was first iodinated then a Pd-catalyzed iodine to tritium exchange provided the labeled compound. […] Assays were conducted in 96-well plates in a total volume of 200 μL. […] Non-specific binding was defined by competition with 1 μM of Ex-77B. After the incubation period, the binding mixtures were loaded onto the gel-filtration plate (ThermoFischer Cat. No. 89808) pre-equilibrated with binding buffer and spun at 1000×g for 3 min at 4° C. on a Bench top centrifuge. The collected eluates in White Frame Clear Well Isoplates (Perkin Elmer Cat #6005040) received 100 μl of UltimaGold scintillation cocktail. The sealed plates were shaken vigorously and span, and counted after 6 hours with a Wallac Microbeta TriLux 1450 LSC & Luminescence Counter (Perkin Elmer). Data from competition experiments were analyzed to determine Ki values using one site fit Ki equation.

Row | SMILES | EC50 (sGC α1/β1 heterodimer) [nM] | Ki [1] [nM] | % Activation (sGC α1/β1 heterodimer; activity expressed as percentage of compound A (standard)) [%] | Emax (sGC α1/β1 heterodimer) [%]
1 | CC(C)(Cc1coc(C2(C)C(=O)Nc3nc(-c4nn(Cc5ccccc5F)c5ncccc45)nc(N)c32)n1)C(=O)O (centres unmarked) [Example 1A, 3-(2-{4-Amino-2-[1-(2-fluorobenzyl)-1H-pyrazolo[3,4-b]pyridin-3-yl]-5-methyl-6-oxo-6,7-dihydro-5H-pyrrolo[2,3-d]pyrimidin-5-yl}oxazol-4-yl)-2,2-dimethylpropanoic acid] | 409 | 0.047 | – | 120
2 | CC1(c2ccc(CCC(=O)O)c(Br)c2)C(=O)Nc2nc(-c3nn(CCC(F)(F)C(F)(F)F)c4cc(Cl)ccc34)nc(N)c21 (centres unmarked) [Example 4B, 3-(4-{4-amino-2-[6-chloro-1-(3,3,4,4,4-pentafluoro-butyl)-1H-indazol-3-yl]-5-methyl-6-oxo-6,7-dihydro-5H-pyrrolo[2,3-d]pyrimidin-5-yl}-2-bromophenyl)propanoic acid] | 294 | 0.391 | – | 126
3 | C[C@@]1(c2ccc(CCC(=O)O)cc2)C(=O)Nc2nc(-c3nn(CCCC(F)(F)F)c4ncccc34)nc(N)c21 [Example 15B, (S)-3-(4-{4-amino-5-methyl-6-oxo-2-[1-(4,4,4-trifluorobutyl)-1H-pyrazolo[3,4-b]pyridin-3-yl]-6,7-dihydro-5H-pyrrolo[2,3-d]pyrimidin-5-yl}phenyl)propanoic acid] | 1320 | 0.455 | – | 95
4 | CC(C)(Cc1ccc(C2(C)C(=O)Nc3nc(-c4nn(CCCC(F)(F)F)c5ncccc45)nc(N)c32)cc1)C(=O)O (centres unmarked) [Example 16B, 3-(4-{4-amino-5-methyl-6-oxo-2-[1-(4,4,4-trifluorobutyl)-1H-pyrazolo[3,4-b]pyridin-3-yl]-6,7-dihydro-5H-pyrrolo[2,3-d]pyrimidin-5-yl}phenyl)-2,2-dimethylpropanoic acid] | 1470 | 1.14 | – | 96
5 | CC(Cc1ccc(C2(C)C(=O)Nc3nc(-c4nn(CCCC(F)(F)F)c5ncccc45)nc(N)c32)cc1)C(=O)O (centres unmarked) [Example 17AB, 3-(4-{4-amino-5-methyl-6-oxo-2-[1-(4,4,4-trifluorobutyl)-1H-pyrazolo[3,4-b]pyridin-3-yl]-6,7-dihydro-5H-pyrrolo[2,3-d]pyrimidin-5-yl}phenyl)-2-methylpropanoic acid] | 3780 | 0.936 | – | 77
6 | C[C@@]1(c2ccc(CCC(=O)O)cc2)C(=O)Nc2nc(-c3nn(CCCC(F)(F)F)c4ncc(F)cc34)nc(N)c21 [Example 18B, (S)-3-(4-{4-amino-2-[5-fluoro-1-(4,4,4-trifluorobutyl)-1H-pyrazolo[3,4-b]pyridin-3-yl]-5-methyl-6-oxo-6,7-dihydro-5H-pyrrolo[2,3-d]pyrimidin-5-yl}phenyl)propanoic acid] | 2500 | 0.92 | – | 95
7 | C[C@@]1(c2ccc(CCC(=O)O)cc2)C(=O)Nc2nc(-c3nn(CCCC(F)(F)F)c4nc(Cl)ccc34)nc(N)c21 [Example 19B, (S)-3-(4-{4-amino-2-[6-chloro-1-(4,4,4-trifluorobutyl)-1H-pyrazolo[3,4-b]pyridin-3-yl]-5-methyl-6-oxo-6,7-dihydro-5H-pyrrolo[2,3-d]pyrimidin-5-yl}phenyl)propanoic acid] | 1040 | 0.286 | – | 89
8 | Cc1ccc2c(-c3nc(N)c4c(n3)NC(=O)[C@@]4(C)c3ccc(CCC(=O)O)cc3)nn(CCCC(F)(F)F)c2n1 [Example 20B, (S)-3-(4-{4-amino-5-methyl-2-[6-methyl-1-(4,4,4-trifluorobutyl)-1H-pyrazolo[3,4-b]pyridin-3-yl]-6-oxo-6,7-dihydro-5H-pyrrolo[2,3-d]pyrimidin-5-yl}phenyl)propanoic acid] | 2210 | 4.49 | – | 88
9 | C[C@@]1(c2ccc(CCC(=O)O)cc2)C(=O)Nc2nc(-c3nn(Cc4ccccc4F)c4ncc(F)cc34)nc(N)c21 [Example 23B, (S)-3-(4-{4-amino-2-[5-fluoro-1-(2-fluorobenzyl)-1H-pyrazolo[3,4-b]pyridin-3-yl]-5-methyl-6-oxo-6,7-dihydro-5H-pyrrolo[2,3-d]pyrimidin-5-yl}phenyl)propanoic acid] | 203 | 0.099 | – | 109
10 | Cc1ccc2c(-c3nc(N)c4c(n3)NC(=O)[C@@]4(C)c3ccc(CCC(=O)O)cc3)nn(Cc3ccc(C)c(F)c3F)c2n1 [Example 25B, (S)-3-(4-{4-amino-2-[1-(2,3-difluoro-4-methylbenzyl)-6-methyl-1H-pyrazolo[3,4-b]pyridin-3-yl]-5-methyl-6-oxo-6,7-dihydro-5H-pyrrolo[2,3-d]pyrimidin-5-yl}phenyl)propanoic acid] | 201 | 0.262 | – | 147
11 | CC1(c2cccc(C(=O)O)c2)C(=O)Nc2nc(-c3nn(CCC(F)(F)C(F)(F)F)c4cc(Cl)ccc34)nc(N)c21 (centres unmarked) [Example 26B, 3-{4-amino-2-[6-chloro-1-(3,3,4,4,4-pentafluorobutyl)-1H-indazol-3-yl]-5-methyl-6-oxo-6,7-dihydro-5H-pyrrolo[2,3-d]pyrimidin-5-yl}benzoic acid] | 1920 | 0.266 | – | 102

Results, then the compound that gave them:

Row | EC50 (sGC α1/β1 heterodimer) [nM] | Ki [1] [nM] | % Activation (sGC α1/β1 heterodimer; activity expressed as percentage of compound A (standard)) [%] | Emax (sGC α1/β1 heterodimer) [%] | SMILES
12 | 2460 | 0.292 | – | – | CC1(c2cccc(-c3nn[nH]n3)c2)C(=O)Nc2nc(-c3nn(CCC(F)(F)C(F)(F)F)c4ncccc34)nc(N)c21 (single isomer, unassigned) [Example 252B, 4-amino-5-methyl-2-[1-(3,3,4,4,4-pentafluorobutyl)-1H-pyrazolo[3,4-b]pyridin-3-yl]-5-[3-(2H-tetrazol-5-yl)phenyl]-5,7-dihydro-6H-pyrrolo[2,3-d] pyrimidin-6-one]
13 | 3630 | 0.146 | – | – | CC1(c2cccc(-c3nn[nH]n3)n2)C(=O)Nc2nc(-c3nn(Cc4ccccc4F)c4cc(Cl)ccc34)nc(N)c21 (single isomer, unassigned) [Example 253A, 5-[6-(2H-tetrazol-5-yl)pyridin-2-yl]-4-amino-2-[6-chloro-1-(2-fluorobenzyl)-1H-indazol-3-yl]-5-methyl-5,7-dihydro-6H-pyrrolo[2,3-d] pyrimidin-6-one]
14 | 1730 | 0.08 | – | – | CC1(c2ccc(CCS(=O)(=O)O)cc2)C(=O)Nc2nc(-c3nn(Cc4ccccc4F)c4cc(Cl)ccc34)nc(N)c21 (single isomer, unassigned) [Example 258B, 2-(4-{4-Amino-2-[6-chloro-1-(2-fluorobenzyl)-1H-indazol-3-yl]-5-methyl-6-oxo-6,7-dihydro-5H-pyrrolo[2,3-d]pyrimidin-5-yl}phenyl)ethanesulfonic acid]
15 | 293 | 0.074 | – | – | CC1(N2CCC(CCC(=O)O)C2)C(=O)Nc2nc(-c3nn(Cc4ccccc4F)c4cc(Cl)ccc34)nc(N)c21 (single isomer, unassigned) [Example 261C, 3-[1-{4-Amino-2-[6-chloro-1-(2-fluorobenzyl)-1H-indazol-3-yl]-5-methyl-6-oxo-6,7-dihydro-5H-pyrrolo[2,3-d]pyrimidin-5-yl}pyrrolidin-3-yl]propanoic acid]
16 | 444 | 0.187 | 103.8 | – | CC1(N2CCC(CCC(=O)O)C2)C(=O)Nc2nc(-c3nn(Cc4ccccc4F)c4cc(Cl)ccc34)nc(N)c21 (single isomer, unassigned) [Example 261D, 3-[1-{4-Amino-2-[6-chloro-1-(2-fluorobenzyl)-1H-indazol-3-yl]-5-methyl-6-oxo-6,7-dihydro-5H-pyrrolo[2,3-d]pyrimidin-5-yl}pyrrolidin-3-yl]propanoic acid]
17 | 2170 | 0.536 | – | 105 | CC1(c2cn(CC(=O)O)nn2)C(=O)Nc2nc(-c3nn(CCC(F)(F)C(F)(F)F)c4cc(Cl)ccc34)nc(N)c21 (centres unmarked) [Example 28B, (4-{4-amino-2-[6-chloro-1-(3,3,4,4,4-pentafluorobutyl)-1H-indazol-3-yl]-5-methyl-6-oxo-6,7-dihydro-5H-pyrrolo[2,3-d]pyrimidin-5-yl}-1H-1,2,3-triazol-1-yl)acetic acid]
18 | 176 | 0.56 | – | 93 | CC1(c2cn(C(C)(C)C(=O)O)nn2)C(=O)Nc2nc(-c3nn(CCC(F)(F)C(F)(F)F)c4cc(Cl)ccc34)nc(N)c21 (centres unmarked) [Example 30B, 2-(4-{4-amino-2-[6-chloro-1-(3,3,4,4,4-pentafluorobutyl)-1H-indazol-3-yl]-5-methyl-6-oxo-6,7-dihydro-5H-pyrrolo[2,3-d]pyrimidin-5-yl}-1H-1,2,3-triazol-1-yl)-2-methylpropanoic acid]
19 | 8330 | 1.41 | – | 130 | CC(C)(Cn1cc(C2(C)C(=O)Nc3nc(-c4nn(CCC(F)(F)C(F)(F)F)c5cc(Cl)ccc45)nc(N)c32)nn1)C(=O)O (centres unmarked) [Example 31B, 3-(4-{4-amino-2-[6-chloro-1-(3,3,4,4,4-pentafluorobutyl)-1H-indazol-3-yl]-5-methyl-6-oxo-6,7-dihydro-5H-pyrrolo[2,3-d]pyrimidin-5-yl}-1H-1,2,3-triazol-1-yl)-2,2-dimethylpropanoic acid]
